According to patent US9006396B2, “CsPCNA isoform antibodies and uses thereof” (priority 2005, dated 2015):
Where no end group is shown, it is not given here.

Experiments:
[1] = target: C20 antibody capture of recombinant PCNA (Homo sapiens, UniProt P12004); experiment: Sandwich ELISA with C20 capture antibody and competing peptide; format: binding; conditions: C20 capture 1 μg/well, Ab126 detection; peptide 0.024-2400 ng/well; FIG. 15B
Protocol: (§1) A sandwich ELISA was performed in which either the csPCNA specific Ab126 antibody (1 μg/well) or the non-specific PCNA antibody C20 (1 μg/well) was immobilized to the ELISA plate, and used to capture the recombinant PCNA used in the assay. Residual binding sites on the ELISA plate were blocked with BSA, and recombinant PCNA was incubated with the immobilized capture antibody in the presence of a range of concentrations of competing peptide (UMPB6—(0.024 ng/well-2400 ng/well)). After washing off unbound PCNA, the bound protein was detected with the C20 antibody in the first case, and with Ab126 in the second case. These detection antibodies were added to each well of the ELISA plate. The appropriate alkaline phosphatase conjugated secondary anti-rabbit or anti-goat IgG antibody was incubated with the bound antibody in each of the ELISA plate wells, and after washing away non-specifically bound antibody with PBS-0.05% Tween 20, the amount of detection antibody bound to the captured PCNA was determined by incubating the secondary antibody remaining in each well with 1 mg/ml of p-nitrophenolphosphate for 30 minutes.

[2] = target: Ab126 capture of the csPCNA isoform present in recombinant PCNA (Homo sapiens, UniProt P12004); experiment: Sandwich ELISA with Ab126 capture antibody and competing peptide; format: binding; conditions: Ab126 capture 1 μg/well, C20 detection; peptide 0.024-2400 ng/well; FIG. 15B
Protocol: as §1

C20 antibody capture of recombinant PCNA, sequence (P12004 whole entry): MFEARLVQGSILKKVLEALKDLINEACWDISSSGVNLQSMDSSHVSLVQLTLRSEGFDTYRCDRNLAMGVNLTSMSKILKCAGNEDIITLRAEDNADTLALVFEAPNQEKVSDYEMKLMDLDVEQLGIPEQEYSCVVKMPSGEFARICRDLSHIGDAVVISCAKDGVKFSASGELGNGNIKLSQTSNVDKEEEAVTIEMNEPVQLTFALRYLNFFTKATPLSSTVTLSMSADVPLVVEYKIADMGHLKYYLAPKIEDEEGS
Ab126 capture of the csPCNA isoform present in recombinant PCNA, sequence (P12004 whole entry, canonical isoform): as the sequence (P12004 whole entry) above

LGIPEQEY [UMPB6]
effect on ability of C20 antibody to capture recombinant PCNA [1]: no detectable effect
apparent IC50 for competing for the capture antibody [2]: over 1 μg/well
